Measured values as given in patent US11078193B2 (priority 2014, dated 2021).
pEC50: −log10 of the molar value.

Legend:
Format in all cases: cell-based
[1] = Cytotoxicity, HepG2 cells, Resazurin assay; details: human
HBV [2] = experiment: anti-HBV activity, HepG2.2.15 stable transfected cell line, HBV DNA from secreted virions by realtime PCR; details: Hepatitis B virus, 144 h, HepG2.2.15 cells, 6 days of treatment
HBV [3] = experiment: anti HBV activity, HepG2.117 inducibly HBV producing cell line (Tet-off), intracellular HBV DNA by realtime PCR; details: Hepatitis B virus, 72 h, HepG2.117 cells, 3 days of treatment

SMILES	CC50 at 4 days [1]	pEC50 (HBV [2])	pEC50 (HBV [3])
C[C@@H](NS(=O)(=O)c1cn(C)c(C(=O)Nc2ccnc(C(F)(F)F)c2)c1Cl)C(F)(F)F [Compound 10, 3-Chloro-1-methyl-4-{[(1R)-2,2,2-trifluoro-1-methylethyl]sulfamoyl}-N-[2-(trifluoromethyl)pyridin-4-yl]-1H-pyrrole-2-carboxamide]	> 25000 nM	7.15	6.80
Cn1cc(S(=O)(=O)NC(C)(C)C)c(Cl)c1C(=O)Nc1ccnc(C#N)c1 [Compound 6, 4-(tert-Butylsulfamoyl)-3-chloro-N-(2-cyanopyridin-4-yl)-1-methyl-1H-pyrrole-2-carboxamide]	> 25000 nM	6.23	6.19
Cn1cc(S(=O)(=O)NC2(C(F)(F)F)CC2)c(Cl)c1C(=O)Nc1ccnc(C#N)c1 [Compound 39, 3-chloro-N-(2-cyano-4-pyridyl)-1-methyl-4-[[1-(trifluoromethyl)cyclopropyl]-sulfamoyl]pyrrole-2-carboxamide]	> 25000 nM	7.05	7.05
Cn1cc(S(=O)(=O)NC2(C)COC2)cc1C(=O)Nc1cccc(C(F)(F)F)n1 [Compound 5, 1-Methyl-4-[(3-methyloxetan-3-yl)sulfamoyl]-N-[6-(trifluoromethyl)pyridin-2-yl]-1H-pyrrole-2-carboxamide]	> 25000 nM	6.04	5.51
C[C@@H](NS(=O)(=O)c1cn(C)c(C(=O)Nc2cc(F)nc(F)c2)c1Cl)C(F)(F)F [Compound 35, 3-chloro-N-(2,6-difluoro-4-pyridyl)-1-methyl-4-[[(1R)-2,2,2-trifluoro-1-methyl-ethyl]sulfamoyl]pyrrole-2-carboxamide]	> 25000 nM	8.30	8.00
Cn1cc(S(=O)(=O)NC2(C)CC(F)(F)C2)c(Cl)c1C(=O)Nc1ccnc(C#N)c1 [Compound 64, 3-chloro-N-(2-cyano-4-pyridyl)-4-[(3,3-difluoro-1-methyl-cyclobutyl)-sulfamoyl]-1-methyl-pyrrole-2-carboxamide]	23000 nM	7.70	7.52
CC[C@@H](NS(=O)(=O)c1cn(C)c(C(=O)Nc2ccnc(C(F)F)c2)c1F)C(F)(F)F [Compound 87, N-[2-(difluoromethyl)-4-pyridyl]-3-fluoro-1-methyl-4-[[(1R)-1-(trifluoromethyl)propyl]sulfamoyl]pyrrole-2-carboxamide]	> 25000 nM	7.70	7.52
C[C@@H](NS(=O)(=O)c1cn(C)c(C(=O)Nc2ccnc(C(F)(F)F)c2)c1F)C(C)(F)F [Compound 60, 4-[[(1R)-2,2-difluoro-1-methyl-propyl]sulfamoyl]-3-fluoro-1-methyl-N-[2-(trifluoromethyl)-4-pyridyl]pyrrole-2-carboxamide]	> 25000 nM	6.62	7.40
Cc1cc(NC(=O)c2c(Cl)c(S(=O)(=O)N[C@H](C)C(F)(F)F)cn2C)cnc1F [Compound 13, 3-Chloro-N-(6-fluoro-5-methylpyridin-3-yl)-1-methyl-4-{[(1R)-2,2,2-trifluoro-1-methylethyl]sulfamoyl}-1H-pyrrole-2-carboxamide]	> 25000 nM	6.96	6.74
C[C@@H](NS(=O)(=O)c1cn(C)c(C(=O)Nc2ccnc(Br)c2)c1F)C(C)(F)F [Compound 124, N-(2-bromo-4-pyridyl)-4-[[(1R)-2,2-difluoro-1-methyl-propyl]sulfamoyl]-3-fluoro-1-methyl-pyrrole-2-carboxamide]	> 25000 nM	> 7.00	8.00
Cc1cc(NC(=O)c2cc(S(=O)(=O)NC3(C)COC3)cn2C)cnc1F [Compound 3, N-(6-Fluoro-5-methylpyridin-3-yl)-1-methyl-4-[(3-methyloxetan-3-yl)sulfamoyl]-1H-pyrrole-2-carboxamide]	> 25000 nM	< 6.00	6.12
